Test results reported in patent US20090232838A1, “Ligands of melanocortin receptors” (priority 2005, published 2009).
Read-outs that look alike come from different tables or passages of the source.

How the values were obtained:
Assay type in all cases: cell-based
hMC4-R = target: T1, hMC4-R (Homo sapiens, UniProt P32245); assay: cyclic AMP bioassay, hMC4-R
T1 construct: expressed in transfected cells; host or cells: CHO-K1
Description: (§1) Intracellular cyclic AMP (cAMP) levels were determined by an electrochemiluminescence (ECL) assay (Meso Scale Discovery®, Gaithersburg, Md.; referred to hereinafter as MSD). […] Transgenic CHO-K1 cells stably expressing hMC receptor subtypes 1, 3, 4 or 5 were dispensed at a density of approximately 7,000 cells/well in 384-well Multi-Arrays plates (MSD) containing integrated carbon electrodes and coated with anti-CAMP antibody. Increasing concentrations of the test compounds were added and the cells were incubated for approximately 40 minutes at approximately 37° C. […] At the end of the second incubation period read buffer (Tris-buffered solution containing an ECL co-reactant and Triton X-100 at ph 7.8) was added and the cAMP levels in the cell lysates were immediately determined by ECL detection with a Sector Imager 6000 Reader® (MSD). Data were analyzed using a computer-assisted non-linear regression analysis (XL fit; IDBS) and reported as either an EC50 value or a Kb value.
(§2) The Kb value reflects the potency of an antagonist and is determined by Schild analysis. In brief, concentration-response curves of an agonist are carried out in the presence of increasing concentrations of an antagonist. […] It is calculated by extrapolating the line on a Schild plot to zero on the y-axis.

hMC1-R = target: T2, hMC1-R (Homo sapiens, UniProt Q01726); assay: cyclic AMP bioassay, hMC1-R
T2 construct: expressed in transfected cells; host or cells: CHO-K1
T2 sequence (Q01726 whole entry): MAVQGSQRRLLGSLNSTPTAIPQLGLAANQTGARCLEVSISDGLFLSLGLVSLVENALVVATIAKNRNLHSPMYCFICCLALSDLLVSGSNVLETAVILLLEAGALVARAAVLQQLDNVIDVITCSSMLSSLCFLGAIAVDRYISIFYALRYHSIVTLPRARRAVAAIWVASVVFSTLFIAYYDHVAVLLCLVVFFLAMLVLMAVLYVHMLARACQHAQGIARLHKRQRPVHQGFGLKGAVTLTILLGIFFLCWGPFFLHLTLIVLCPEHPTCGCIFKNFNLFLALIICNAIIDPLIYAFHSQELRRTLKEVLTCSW
Description: as §1, §2

hMC5-R = target: T3, hMC5-R (Homo sapiens, UniProt P33032); assay: cyclic AMP bioassay, hMC5-R
T3 construct: expressed in transfected cells; host or cells: CHO-K1
T3 sequence (P33032 whole entry): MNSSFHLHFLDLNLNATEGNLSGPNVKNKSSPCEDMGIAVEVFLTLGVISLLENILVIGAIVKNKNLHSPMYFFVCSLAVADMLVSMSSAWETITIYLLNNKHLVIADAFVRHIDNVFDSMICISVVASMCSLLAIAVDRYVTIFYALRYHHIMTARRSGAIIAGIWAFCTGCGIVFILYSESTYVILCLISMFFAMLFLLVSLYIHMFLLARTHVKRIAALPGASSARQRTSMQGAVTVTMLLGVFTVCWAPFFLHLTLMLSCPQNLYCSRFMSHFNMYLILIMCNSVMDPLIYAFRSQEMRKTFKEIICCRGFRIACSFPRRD

hMC3-R = target: T4, hMC3-R (Homo sapiens, UniProt P41968); assay: cyclic AMP bioassay, hMC3-R
T4 construct: expressed in transfected cells; host or cells: CHO-K1
T4 sequence (P41968 whole entry): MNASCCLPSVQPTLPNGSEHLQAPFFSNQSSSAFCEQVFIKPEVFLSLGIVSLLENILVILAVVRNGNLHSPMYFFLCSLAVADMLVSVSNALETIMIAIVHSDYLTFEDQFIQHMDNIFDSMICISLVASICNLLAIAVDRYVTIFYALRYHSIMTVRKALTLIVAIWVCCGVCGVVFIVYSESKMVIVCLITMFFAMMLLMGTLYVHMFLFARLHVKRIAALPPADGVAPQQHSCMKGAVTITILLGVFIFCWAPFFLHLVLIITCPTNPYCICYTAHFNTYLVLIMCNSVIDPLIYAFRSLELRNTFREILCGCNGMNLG
Description: as §1, §2

[1] = Table 3A, cAMP in CHO-K1 cells, antagonist potency by Schild analysis, read-out: Kb hMC4-R
[2] = Table 3A, cAMP in CHO-K1 cells, antagonist potency by Schild analysis, read-out: Kb hMC3-R

T1 sequence (P32245 whole entry): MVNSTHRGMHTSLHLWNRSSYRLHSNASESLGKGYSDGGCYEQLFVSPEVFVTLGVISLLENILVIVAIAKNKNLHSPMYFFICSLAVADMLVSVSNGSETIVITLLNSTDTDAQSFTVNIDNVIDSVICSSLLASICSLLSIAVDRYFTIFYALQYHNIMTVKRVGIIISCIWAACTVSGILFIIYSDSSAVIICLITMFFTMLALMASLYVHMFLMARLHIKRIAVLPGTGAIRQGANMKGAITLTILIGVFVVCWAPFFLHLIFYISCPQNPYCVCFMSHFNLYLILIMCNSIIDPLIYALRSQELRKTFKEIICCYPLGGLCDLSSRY

Structure (SMILES)	Kb (hMC4-R)	EC50 (hMC1-R)	EC50 (hMC5-R)	Kb (hMC3-R)	Kb (hMC4-R; [1])	Kb (hMC3-R; [2])
CCCC[C@H](NC(C)=O)C(=O)N[C@H]1CSSC[C@@H](C(=O)NCCC(=O)N[C@@H](Cc2ccc(O)cc2)C(=O)NCC(=O)N[C@@H](CCCNC(=N)N)C(=O)N[C@@H](CCCNC(=N)N)C(=O)N[C@@H](CCCNC(=N)N)C(=O)N[C@@H](CCCNC(=N)N)C(=O)N[C@@H](CCCNC(=N)N)C(=O)N[C@@H](CCC(N)=O)C(=O)N[C@@H](CCCNC(=N)N)C(=O)N[C@@H](CCCNC(=N)N)C(=O)N[C@@H](CCCNC(=N)N)C(N)=O)NC(=O)[C@H](Cc2c[nH]c3ccccc23)NC(=O)[C@H](CCCNC(=N)N)NC(=O)[C@@H](Cc2ccccc2)NC(=O)[C@H](Cc2c[nH]cn2)NC(=O)[C@@H](C)NC1=O	0.843 nM	7.86 nM	4900 nM	10.5 nM		
CC(=O)N[C@H]1CSSC[C@@H](C(=O)N2CCC[C@H]2C(=O)N2CCC[C@H]2C(=O)N[C@@H](CCCCN)C(=O)N[C@@H](CC(=O)O)C(=O)NCCC(=O)N[C@@H](Cc2ccc(O)cc2)C(=O)NCC(=O)N[C@@H](CCCNC(=N)N)C(=O)N[C@@H](CCCCN)C(=O)N[C@@H](CCCCN)C(=O)N[C@@H](CCCNC(=N)N)C(=O)N[C@@H](CCCNC(=N)N)C(=O)N[C@@H](CCC(N)=O)C(=O)N[C@@H](CCCNC(=N)N)C(=O)N[C@@H](CCCNC(=N)N)C(=O)N[C@@H](CCCNC(=N)N)C(N)=O)NC(=O)[C@H](C)NC(=O)[C@H](Cc2cccc3ccccc23)NC(=O)[C@H](CCCNC(=N)N)NC(=O)[C@@H](Cc2ccc3ccccc3c2)NC(=O)[C@H](Cc2c[nH]cn2)NC(=O)[C@H](CCC(=O)O)NC1=O	5.87 nM	43.3 nM	1290 nM	215 nM		
CC(=O)N[C@H]1CSSC[C@@H](C(=O)N2CCC[C@H]2C(=O)N2CCC[C@H]2C(=O)N[C@@H](CCCCN)C(=O)N[C@@H](CC(=O)O)C(=O)NCCC(=O)N[C@@H](CCCNC(=N)N)C(=O)N[C@@H](CCCNC(=N)N)C(=O)N[C@@H](CCCNC(=N)N)C(=O)N[C@@H](CCCNC(=N)N)C(=O)N[C@@H](CCCNC(=N)N)C(=O)N[C@@H](CCCNC(=N)N)C(=O)N[C@@H](CCC(N)=O)C(=O)N[C@@H](CCCNC(=N)N)C(=O)N[C@@H](CCCNC(=N)N)C(=O)N[C@@H](CCCNC(=N)N)C(N)=O)NC(=O)[C@H](C)NC(=O)[C@H](Cc2cccc3ccccc23)NC(=O)[C@H](CCCNC(=N)N)NC(=O)[C@@H](Cc2ccc3ccccc3c2)NC(=O)[C@H](Cc2c[nH]cn2)NC(=O)[C@H](CCC(=O)O)NC1=O	15.9 nM	93 nM	> 10000 nM	71 nM		
CC(=O)N[C@H]1CSSC[C@@H](C(=O)N2CCC[C@H]2C(=O)N2CCC[C@H]2C(=O)N[C@@H](CCCCN)C(=O)N[C@@H](CC(=O)O)C(=O)NCCC(=O)N[C@@H](CCCNC(=N)N)C(=O)N[C@@H](CCCNC(=N)N)C(=O)N[C@@H](CCCNC(=N)N)C(=O)N[C@@H](CCCNC(=N)N)C(=O)N[C@@H](CCCNC(=N)N)C(=O)N[C@@H](CCC(N)=O)C(=O)N[C@@H](CCCNC(=N)N)C(=O)N[C@@H](CCCNC(=N)N)C(=O)N[C@@H](CCCNC(=N)N)C(N)=O)NC(=O)[C@H](C)NC(=O)[C@H](Cc2cccc3ccccc23)NC(=O)[C@H](CCCNC(=N)N)NC(=O)[C@@H](Cc2ccc3ccccc3c2)NC(=O)[C@H](Cc2c[nH]cn2)NC(=O)[C@H](CCC(=O)O)NC1=O	11.4 nM	36 nM	56.1 nM	46.5 nM		
CC(=O)N[C@H]1CSSC[C@@H](C(=O)N2CCC[C@H]2C(=O)N2CCC[C@H]2C(=O)N[C@@H](CCCNC(=N)N)C(=O)N[C@@H](CC(=O)O)C(=O)NCCC(=O)N[C@@H](CCCNC(=N)N)C(=O)N[C@@H](CCCNC(=N)N)C(=O)N[C@@H](CCCNC(=N)N)C(=O)N[C@@H](CCCNC(=N)N)C(=O)N[C@@H](CCCNC(=N)N)C(=O)N[C@@H](CCC(N)=O)C(=O)N[C@@H](CCCNC(=N)N)C(=O)N[C@@H](CCCNC(=N)N)C(=O)N[C@@H](CCCNC(=N)N)C(N)=O)NC(=O)[C@H](C)NC(=O)[C@H](Cc2ccc3ccccc3c2)NC(=O)[C@H](CCCNC(=N)N)NC(=O)[C@@H](Cc2ccc3ccccc3c2)NC(=O)[C@H](Cc2c[nH]cn2)NC(=O)[C@H](CCC(=O)O)NC1=O	6.66 nM	39.7 nM	501 nM	30.9 nM		
CC(=O)N[C@H]1CSSC[C@@H](C(=O)N2CCC[C@H]2C(=O)N2CCC[C@H]2C(=O)N[C@@H](CCCCN)C(=O)N[C@@H](CC(=O)O)C(=O)NCCC(=O)N[C@@H](CCCNC(=N)N)C(=O)N[C@@H](CCCNC(=N)N)C(=O)N[C@@H](CCCNC(=N)N)C(=O)N[C@@H](CCCNC(=N)N)C(=O)N[C@@H](CCCNC(=N)N)C(=O)N[C@@H](CCC(N)=O)C(=O)N[C@@H](CCCNC(=N)N)C(=O)N[C@@H](CCCNC(=N)N)C(=O)N[C@@H](CCCNC(=N)N)C(N)=O)NC(=O)[C@H](C)NC(=O)[C@H](Cc2ccc3ccccc3c2)NC(=O)[C@H](CCCNC(=N)N)NC(=O)[C@@H](Cc2ccc3ccccc3c2)NC(=O)[C@H](Cc2c[nH]cn2)NC(=O)[C@H](CCC(=O)O)NC1=O	12.6 nM	35.2 nM	199 nM	22.9 nM		
CC(=O)N[C@H]1CSSC[C@@H](C(=O)N2CCC[C@H]2C(=O)N2CCC[C@H]2C(=O)N[C@@H](CCCCN)C(=O)N[C@@H](CC(=O)O)C(=O)NCCC(=O)N[C@@H](Cc2ccc(O)cc2)C(=O)NCC(=O)N[C@@H](CCCNC(=N)N)C(=O)N[C@@H](CCCCN)C(=O)N[C@@H](CCCCN)C(=O)N[C@@H](CCCNC(=N)N)C(=O)N[C@@H](CCCNC(=N)N)C(=O)N[C@@H](CCC(N)=O)C(=O)N[C@@H](CCCNC(=N)N)C(=O)N[C@@H](CCCNC(=N)N)C(=O)N[C@@H](CCCNC(=N)N)C(N)=O)NC(=O)[C@H](C)NC(=O)[C@H](Cc2ccc3ccccc3c2)NC(=O)[C@H](CCCNC(=N)N)NC(=O)[C@@H](Cc2ccc3ccccc3c2)NC(=O)[C@H](Cc2c[nH]cn2)NC(=O)[C@H](CCC(=O)O)NC1=O	7.37 nM	29.7 nM	82.9 nM	25.6 nM		
CC(=O)N[C@H]1CSSC[C@@H](C(=O)N2CCC[C@H]2C(=O)N2CCC[C@H]2C(=O)N[C@@H](CCCCN)C(=O)N[C@@H](CC(=O)O)C(=O)NCCC(=O)NCC(=O)N[C@@H](CCCNC(=N)N)C(=O)N[C@@H](CCCNC(=N)N)C(=O)N[C@@H](CCCCN)C(=O)N[C@@H](CCCNC(=N)N)C(=O)N[C@@H](CCCNC(=N)N)C(=O)N[C@@H](CCC(N)=O)C(=O)N[C@@H](CCCNC(=N)N)C(=O)N[C@@H](CCCNC(=N)N)C(=O)N[C@@H](CCCNC(=N)N)C(N)=O)NC(=O)[C@H](C)NC(=O)[C@H](Cc2ccc3ccccc3c2)NC(=O)[C@H](CCCNC(=N)N)NC(=O)[C@@H](Cc2ccc3ccccc3c2)NC(=O)[C@H](Cc2c[nH]cn2)NC(=O)[C@H](CCC(=O)O)NC1=O	12.7 nM	45.4 nM	162 nM	12.7 nM		
CC(=O)N[C@H]1CSSC[C@@H](C(=O)N2CCC[C@H]2C(=O)N2CCC[C@H]2C(=O)N[C@@H](CCCCN)C(=O)N[C@@H](CC(=O)O)C(=O)NCCC(=O)N[C@@H](Cc2ccc(O)cc2)C(=O)NCC(=O)N[C@@H](CCCNC(=N)N)C(=O)N[C@@H](CCCCN)C(=O)N[C@@H](CCCCN)C(=O)N[C@@H](CCCNC(=N)N)C(=O)N[C@@H](CCCNC(=N)N)C(=O)N[C@@H](CCCNC(=N)N)C(=O)N[C@@H](CCCNC(=N)N)C(=O)N[C@@H](CCCNC(=N)N)C(=O)N[C@@H](CCC(N)=O)C(N)=O)NC(=O)[C@H](C)NC(=O)[C@H](Cc2c[nH]c3ccccc23)NC(=O)[C@H](CCCNC(=N)N)NC(=O)[C@@H](Cc2ccc3ccccc3c2)NC(=O)[C@H](Cc2c[nH]cn2)NC(=O)[C@H](CCC(=O)O)NC1=O	7.61 nM	7.5 nM	51.7 nM	12.2 nM		
CC(=O)N[C@H]1CSSC[C@@H](C(=O)N2CCC[C@H]2C(=O)N2CCC[C@H]2C(=O)N[C@@H](CCCCN)C(=O)N[C@@H](CC(=O)O)C(=O)NCCC(=O)N[C@@H](Cc2ccc(O)cc2)C(=O)NCC(=O)N[C@@H](CCCNC(=N)N)C(=O)N[C@@H](CCCCN)C(=O)N[C@@H](CCCCN)C(=O)N[C@@H](CCCNC(=N)N)C(=O)N[C@@H](CCC(N)=O)C(=O)N[C@@H](CCCNC(=N)N)C(=O)N[C@@H](CCCNC(=N)N)C(=O)N[C@@H](CCCNC(=N)N)C(=O)N[C@@H](CCCNC(=N)N)C(N)=O)NC(=O)[C@H](C)NC(=O)[C@H](Cc2c[nH]c3ccccc23)NC(=O)[C@H](CCCNC(=N)N)NC(=O)[C@@H](Cc2ccc3ccccc3c2)NC(=O)[C@H](Cc2c[nH]cn2)NC(=O)[C@H](CCC(=O)O)NC1=O	4.52 nM	15.2 nM	36.8 nM	14.6 nM		
CC(=O)N[C@H]1CSSC[C@@H](C(=O)N2CCC[C@H]2C(=O)N2CCC[C@H]2C(=O)N[C@@H](CCCCN)C(=O)N[C@@H](CC(=O)O)C(=O)NCCOCCOCC(=O)N[C@@H](Cc2ccc(O)cc2)C(=O)NCC(=O)N[C@@H](CCCNC(=N)N)C(=O)N[C@@H](CCCCN)C(=O)N[C@@H](CCCCN)C(=O)N[C@@H](CCCNC(=N)N)C(=O)N[C@@H](CCCNC(=N)N)C(=O)N[C@@H](CCC(N)=O)C(=O)N[C@@H](CCCNC(=N)N)C(=O)N[C@@H](CCCNC(=N)N)C(=O)N[C@@H](CCCNC(=N)N)C(N)=O)NC(=O)CNC(=O)[C@H](Cc2c[nH]c3ccccc23)NC(=O)[C@H](CCCNC(=N)N)NC(=O)[C@@H](Cc2ccc3ccccc3c2)NC(=O)[C@H](Cc2c[nH]cn2)NC(=O)[C@H](CCC(=O)O)NC1=O					1.49 nM	17.7 nM
CCCC[C@H](NC(=O)[C@H](CCCNC(=N)N)NC(=O)[C@H](CCCNC(=N)N)NC(=O)[C@H](CCCNC(=N)N)NC(=O)[C@H](CCC(N)=O)NC(=O)[C@H](CCCNC(=N)N)NC(=O)[C@H](CCCNC(=N)N)NC(=O)[C@H](CCCCN)NC(=O)[C@H](CCCCN)NC(=O)[C@H](CCCNC(=N)N)NC(=O)CNC(=O)[C@@H](N)Cc1ccc(O)cc1)C(=O)N[C@H]1CC(=O)NCCCC[C@@H](C(N)=O)NC(=O)[C@H](Cc2c[nH]c3ccccc23)NC(=O)[C@H](CCCNC(=N)N)NC(=O)[C@@H](Cc2ccc3ccccc3c2)NC(=O)[C@H](Cc2c[nH]cn2)NC1=O					105 nM	4500 nM
